According to US20110245173A1, “Long-Acting GLP-1 Derivatives, and Methods of Treating Cardiac Dysfunction” (priority 2008, published 2011):

Assays:
[1] = Pharmacokinetics in plasma after single bolus intravenous administration to rats; parameters: species or system Sprague Dawley rats; conditions: rat, in vivo; for AUC(0-inf) / AUC(0-t) / Cmax / clearance / half-life: male, Sprague Dawley
Protocol: GLP-1 (9-36) analogues containing C-terminal extensions (FIG. 2) were tested in 9 week old male Sprague Dawley rats to evaluate biological half-life as well as other pharmacokinetic properties of the analogues. Rats used in the study were acclimated to laboratory conditions for approximately 1 week prior to testing. Polypeptide analogues were prepared as solutions for intravenous administration (bolus injection in the jugular vein) at concentrations of 0.15 mg/mL and 1.5 mg/mL in appropriate buffers. The compounds were then injected while the animals were still under anesthesia. Blood samples were taken form each animal at no more than 5 occasions. Following dose administration, blood samples (0.3 to 0.4 mL) were obtained by jugular venipuncture (lithium heparin was used as an anticoagulant) at selected time points (0, 2.5, 5, 10 and 15 minutes or 30, 45, 60, 120 and 240 minutes). The samples were analyzed for parent drug by LC-MS/MS. Numerical data was subjected to calculation of group mean values, standard deviations and coefficients of variation (expressed as a percent), where appropriate. The pharmacokinetic analysis (non-compartmental) of plasma concentration was performed using the PhAST software program (Version 2.3-004, Pheonix International Life Sciences Inc.). The highest experimental concentration was considered the peak concentration (Cmax; observed value). Whenever possible, the observed terminal phase rate constant (Kel) was calculated from the terminal 3 or more points (non-zero and non-Cmax points) of the log-linear regression. The number of points included in the regression analysis was such as to optimize r^2 value calculated for the regression. Terminal phase half-life (t1/2) was determined by dividing 0.693 by Kel. The area under the plasma concentration of each compound versus time-curve from time zero to the last quantifiable concentration (AUC0-t) was calculated by the linear trapezoidal method (Bailer, A. J., (1988) J. Pharmacokin. Biopharm., 1, 303-309). AUC0-∞, the area under the plasma concentration versus time curve from time zero to infinity, was calculated as the sum of AUC0-t plus the ratio of the last plasma concentration to Kel. Values below the limit of quantification were assigned a value of zero for pharmacokinetic analysis.

[2] = cited from earlier work

AUC(0-inf) ([1]; 0.15 mg/kg): 65.1 ng·h/mL
AUC(0-t) ([1]; 0.15 mg/kg): 63.8 ng·h/mL
Cmax ([1]; 0.15 mg/kg): 1060 ng/mL
clearance ([1]; 0.15 mg/kg): 38.4 mL/min/kg
half-life ([1]; 0.15 mg/kg, T1/2: Terminal phase half-life): 1.64 min
AUC(0-inf) ([1]; 1.5 mg/kg): 679 ng·h/mL
AUC(0-t) ([1]; 1.5 mg/kg): 672 ng·h/mL
Cmax ([1]; 1.5 mg/kg): 10600 ng/mL
clearance ([1]; 1.5 mg/kg): 36.8 mL/min/kg
half-life ([1]; 1.5 mg/kg, T1/2: Terminal phase half-life): 2.22 min
half-life ([1]; 1.5 mg/kg, half-life): 1.6 to 2.2 min
Tmax: Time to Cmax ([1]; 0.15 mg/kg): 2.50 min
Tmax: Time to Cmax ([1]; 1.5 mg/kg): 2.50 min
Structure (SMILES): CC[C@H](C)[C@H](NC(=O)[C@H](Cc1ccccc1)NC(=O)[C@H](CCC(=O)O)NC(=O)[C@H](CCCCN)NC(=O)[C@H](C)NC(=O)[C@H](C)NC(=O)[C@H](CCC(N)=O)NC(=O)CNC(=O)[C@H](CCC(=O)O)NC(=O)[C@H](CC(C)C)NC(=O)[C@H](Cc1ccc(O)cc1)NC(=O)[C@H](CO)NC(=O)[C@H](CO)NC(=O)[C@@H](NC(=O)[C@H](CC(=O)O)NC(=O)[C@H](CO)NC(=O)[C@@H](NC(=O)[C@H](Cc1ccccc1)NC(=O)[C@@H](NC(=O)CNC(=O)[C@@H](N)CCC(=O)O)[C@@H](C)O)[C@@H](C)O)C(C)C)C(=O)N[C@@H](C)C(=O)N[C@@H](Cc1c[nH]c2ccccc12)C(=O)N[C@@H](CC(C)C)C(=O)N[C@H](C(=O)N[C@@H](CCCCN)C(=O)NCC(=O)N[C@@H](CCCNC(=N)N)C(N)=O)C(C)C [DGS70]
half-life in vivo [2]: 2 to 4 min
